Results taken from PMC3985856 (Biochemistry, 2014).

Molecular target: T1, BAL (benzaldehyde lyase) (Pseudomonas fluorescens, UniProt Q9F4L3)
T1 sequence (Q9F4L3 1-563): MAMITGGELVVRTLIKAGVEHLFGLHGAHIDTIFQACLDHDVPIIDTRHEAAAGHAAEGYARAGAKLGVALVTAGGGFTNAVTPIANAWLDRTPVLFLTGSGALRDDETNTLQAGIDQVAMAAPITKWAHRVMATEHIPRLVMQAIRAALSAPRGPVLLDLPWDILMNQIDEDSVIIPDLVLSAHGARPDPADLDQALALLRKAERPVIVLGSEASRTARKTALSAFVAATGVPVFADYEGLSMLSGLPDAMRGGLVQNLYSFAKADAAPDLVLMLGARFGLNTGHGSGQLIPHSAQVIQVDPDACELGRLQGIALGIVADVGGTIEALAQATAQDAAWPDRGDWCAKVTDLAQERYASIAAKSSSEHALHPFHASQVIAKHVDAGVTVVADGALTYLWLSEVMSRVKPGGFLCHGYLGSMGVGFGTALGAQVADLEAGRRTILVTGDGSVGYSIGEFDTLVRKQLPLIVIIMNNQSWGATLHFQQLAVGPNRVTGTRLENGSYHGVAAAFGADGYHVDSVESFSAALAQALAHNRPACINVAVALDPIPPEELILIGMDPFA
Assay: CD titration, Hill fit
Type: binding
Details: pH 8.0, 50 mM Tris, 0.2 mM ThDP, 1 mM MgCl2, 30 °C; covalent adduct with ThDP

Kd: 1100 µM
Compound: O=C(O)C(=O)/C=C/c1ccc(Cl)cc1 [CPB, (E)-4-(4-chlorophenyl)-2-oxo-3-butenoic acid]
